Source: article PMC8541546, “Identification of HLA-A2-Restricted Mutant Epitopes from Neoantigens of Esophageal Squamous Cell Carcinoma” (Vaccines, 2021)

Legend:
HLA-A*0201 molecule = target: T1, HLA-A*0201 molecule (Homo sapiens, UniProt P04439, D140Y/D185E/D98H/E176V/E277Q/G131W/G231S/I119V/I121R/I166T/I218V/L300P/L318F/N151K/N90K/P208A/P217A/Q86G/Q94H/R138H/R169H/T345S); test: T2A2 cell-binding assay; settings: T2A2 cells; FI = (MFI of peptide - MFI of control without peptide)/MFI of control without peptide; anti-HLA-A2 BB7.2, flow cytometry; FI > 1 = high binding affinity
T1 construct: T2A2 cells (TAP-deficient HLA-A2 molecules overexpressing, cultured in IMDM medium); host or cells: T2A2 cells
Experimental: The binding affinity of neoepitope to the MHC molecule and the stable neoepitope/MHC complex are critical for inducing T cell immune response, so we first performed a T2A2 cell-binding assay and stabilization assay. The T2A2 cell-binding assay was measured as in our previous study. The binding affinity was computed as follows: fluorescence index (FI) = (mean fluorescence intensity (MFI) of peptide group-MFI of the dissolved buffer without peptide group)/MFI of the dissolved buffer without peptide group.

[1] = target: T2, peptide/HLA-A*0201 complex (Homo sapiens, UniProt P04439, D140Y/D185E/D98H/E176V/E277Q/G131W/G231S/I119V/I121R/I166T/I218V/L300P/L318F/N151K/N90K/P208A/P217A/Q86G/Q94H/R138H/R169H/T345S); test: peptide/MHC complex stabilization assay on T2A2 cells; format: binding; settings: T2A2 cells pulsed with 50 μg/mL peptide and 3 μg/mL β2-M 18 h, BFA 1 h; MFI at 0, 2, 4, 6 h; time of half losing MFI of 0 h
T2 construct: T2A2 cells (TAP-deficient HLA-A2 molecules overexpressing, cultured in IMDM medium); β2-M from Merck; host or cells: T2A2 cells
Experimental: For the stabilization test, T2A2 cells were pulsed with 50 μg/mL mutant peptide and 3 μg/mL β2-Microglobulin (β2-M, Merck, Kenilworth, NJ, USA) in IMDM (serum-free) medium for 18 h. After three times washing, free peptides were removed and brefeldin A (BFA, 10 μg/mL, BD Bioscience, San Diego, CA, USA) was added. BFA was removed after 1 h impeding, and the cells were incubated for additional time. Finally, T2A2 was marked with anti-human HLA-A2 PE-Cyanine7 for 30 min, then analyzed by FACS Calibur (BD Bioscience, USA). MFI of 0 h was set as 100%, and the time of half losing MFI of 0 h defined the dissociation complex 50 (DC50). DC50 was computed as follows: (MFI of 0 h-MFI of (2, 4, or 6 h))/MFI of 0 h × 100%.

[2] = test system: peptide-pulsed T2A2 cells; test: IFN-γ intracellular staining of peptide-induced T cells from donor PBMCs; format: cell-based, human; settings: PBMCs of HLA-A2+ donors B–F, DCs pulsed with 10 μg/mL peptide, three rounds
Experimental: (§1) DCs involve and play an important role in initiating CD8^+ T cell response. Consequently, ten HLA-A2^+ healthy donors’ PBMCs were isolated, autologous DCs were generated, and CTLs were induced according to the procedure described previously. In brief, PBMCs were seeded at a density of 5 × 10^6 cells/well in a 6-well plate, and after 3 h, the non-adherent cells were removed and cryopreserved for future incubation with mature autologous DCs. Differentiation of the adherent cells into dendritic cells was induced by GM-CSF (100 ng/mL, #300-03, PeproTech, Rocky Hill, NJ, USA) and IL-4 (100 ng/mL; #200-04, PeproTech, USA), with replenishment every 2 days. On day 5, maturation of DCs was induced using 100 ng/mL LPS (#L4516, Sigma-Aldrich, St. Louis, MO, USA), and maturation was checked on day 8 by flow cytometry (BD FACSCelesta™) using markers for anti-human HLA-DR, anti-human CD80, and anti-human CD86. Then, mature DCs (1 × 10^5) were pulsed with each 10 μg /mL individual peptide or no peptides (control) for 2 h at 37 °C. Next, peptide-pulsed DCs were used to prime the previously cryopreserved autologous peripheral blood lymphocytes (PBLs) at a DC/PBL ratio of 1:10 using complete RPMI-1640 media supplemented with 100 IU/mL rhIL-2 (#200-02, PeproTech, USA) and 10 ng/mL rhIL-7 (#200-07, PeproTech, USA). Half of the feeding medium was replenished every 2 days. After 7 days, PBLs were restimulated with freshly pulsed autologous DCs every 7 days.
When target cells were peptide-pulsed T2A2 cells (MUT peptide or its corresponding WT peptide), peptide-specific T cells (from HLA-A2^+ healthy donors B–F) stimulated by MUT peptides were co-cultured with these cells in the presence of BFA for 5 h. Then T cells were marked by anti-human CD3 and anti-human CD8α monoclonal antibody. Thirty minutes later, cells were fixed by fixation buffer (Thermo Scientific, Waltham, MA, USA) for thirty minutes and washed by permeabilization buffer (Thermo Scientific, USA). Permeabilized T cells were marked by anti-human IFN-γ monoclonal antibody.

[3] = test system: peptide-pulsed T2A2 cells; test: Cytotoxicity assay of peptide-induced T cells from donor PBMCs; format: cell-based, human; settings: donors B–F; E/T 12.5:1, 25:1, 50:1; T2A2 loaded with 50 μg/mL peptide
Experimental: as §1
The cytotoxicity of peptide-specific T cells stimulated by mutant peptides was tested by using Cell Trace Far Red (Thermo Scientific, USA). Transfected cells were suspended in PBS (1 × 10^6 cells/mL) and labelled with Cell Trace Far Red as follows: Control target cells and test target cells were marked by 50 μM and 1 mM Cell Trace Far Red, respectively, at 37 °C for 20 min, protected from light. After incubation, target cells were washed with complete media at 37 °C for 5 min. […] Subsequently, test target cells were mixed with control target cells in a tube, washed once, and analyzed by flow cytometry. Specific lysis (%) = (numbers of control target cells—numbers of test target cells)/numbers of control target cells × 100% [28, 29], where, for tumor cells, the control target cells refer to KYSE140-WT cells marked with 50 μM Cell Trace Far Red, and the test target cell refers to KYSE140-WT or KYSE140-MUT cells marked with 1 mM Cell Trace Far Red, respectively (peptide-specific T cells generated from donors G–K’s PBMCs in vitro or generated from spleen lymphocytes of HLA-A2.1/K^b Tg mice in vivo). Additionally, for T2A2 target cells, T2A2 cells unpulsed and marked with 50 μM Cell Trace Far Red were used as the control target cells, while T2A2 cells loaded with MUT peptides or the corresponding WT peptides (50 μg/mL) or T2A2 cells only were marked with 1 mM Cell Trace Far Red and were used as test target cells (peptide-specific T cells stimulated from donors B–F’s PBMCs).

Sequence	FI (fluorescence index) (HLA-A*0201 molecule)	DC50 (dissociation complex 50) [1]	IFN-γ release of MUT peptide-induced T cells, MUT versus WT peptide-loaded T2A2 cells [2]	lysis cytotoxicity of MUT peptide-induced T cells on T2A2 cells [3]
GLPNDDLYI [DNAH5-S3587Y]	0.68			
LLGRNSFEL [TP53-V272L]	0.53			
YMCNSSCMV [TP53-G244V]	0.49			
ILGEEAPRL [KMT2D-F4722L]	0.29			
QLQAQLQGV [KMT2D-R4198Q]	1.12	<2 h		
YLPDHHEEL [SYNE1-S7628Y]	1.67	<2 h		
FLIQTEQKL [SYNE1-V7402I]	1.27	>6 h	cannot effectively distinguish T2A2 cells loaded with WT or MUT peptides	strong cytotoxicity activity
CLRDYQPFL [LRP2-D1744Y]	0.20			
ILWRQDTDL [NFE2L2-I28T]	0.79			
LMSRIPHDV [MUC16-Q5024H]	0.14			
TMSERSTLL [MUC17-T3809M]	0.12			
TLTATVNIV [PCDH15-S628L]	0.43			
ILIGETIKI [COX-2 321–329, reference compound]	2.12	>6 h		
VLDDSETTI [MUC16-A9832D]	3.56	>6 h	cannot effectively distinguish T2A2 cells loaded with WT or MUT peptides	strong cytotoxicity activity
NLHSINDFL [ABCA13-D1303H]	0.24			
TILEELNVV [SYNE1-N4342I]	1.81	<4 h		
YLLTPNGRV [LRP1B-C2479Y]	0.39			

Sequence	FI (fluorescence index) (HLA-A*0201 molecule)	DC50 (dissociation complex 50) [1]	IFN-γ release of MUT peptide-induced T cells, MUT versus WT peptide-loaded T2A2 cells [2]	lysis cytotoxicity of MUT peptide-induced T cells on T2A2 cells [3]
ALPQHLIRV [TP53-P190L]	1.26	>4 h	cannot effectively distinguish T2A2 cells loaded with WT or MUT peptides	strong cytotoxicity activity
LLARNSFEV [TP53-G266A]	0.16			
GMLSPVDFL [NOTCH1-S2202F]	0.13			
RMHDVTTPL [NOTCH1-G1995V]	0.42			
SIPSFPLPV [MUC16-S5361F]	2.25	<2 h		
SMGDALDSI [MUC16-A4579D]	1.35	<2 h		
RMQRVLSHV [DNAH5-L4406H]	0.30			
FLTATRQEI [DNAH5-M4495T]	0.21			
FMNELMDII [DNAH5-D4110N]	0.38			
VISDYKYKV [NEB-D3282V]	0.09			
GLFQCGTGL [LRP1B-R3362L]	0.09			
TMPVVSSEV [MUC17-A2414V]	1.54	<4 h		
ALNKMFFQL [TP53-C135F]	0.12			
ILQDGFLYV [ABCA13-E1359Q]	1.56	>6 h	cannot effectively distinguish T2A2 cells loaded with WT or MUT peptides	strong cytotoxicity activity
ALDMCVKFL [LRP1B-P3707L]	0.37			
KLLSLLEVL [SYNE1-A65S]	0.08			
